The NIST ThermoML archive (doi:10.1016/j.fluid.2018.10.024)

Experiments:
[1] = xn = mol fraction of the nth substance listed; conditions: 101 kPa, Liquid; for viscosity: Capillary tube (Ostwald / Ubbelohde) method; for mass density: Vibrating tube method
[2] = refractive index (Na D-line) (dimensionless); xn = mol fraction of the nth substance listed; conditions: 101 kPa, Liquid, Standard Abbe refractometry

CC(C)=O [acetone] + CO
Conditions	mass density, [1] [kg/m3]	refractive index, [2]	viscosity, [1] [mPa·s]
298.15 K, x2 = 0	784.41	1.3558	0.3034
298.15 K, x2 = 0.1036	786.21	1.3539	0.3003
298.15 K, x2 = 0.2043	787.49	1.3521	0.3006
298.15 K, x2 = 0.302	788.57	1.3502	0.3059
298.15 K, x2 = 0.4013	789.53	1.3483	0.3143
298.15 K, x2 = 0.5004	790.3	1.3458	0.3299
298.15 K, x2 = 0.6006	790.81	1.3426	0.3533
298.15 K, x2 = 0.6969	790.98	1.3389	0.3852
298.15 K, x2 = 0.802	790.73	1.3352	0.4316
298.15 K, x2 = 0.8965	789.83	1.3315	0.4833
303.15 K, x2 = 0	778.66	1.3534	0.2966
303.15 K, x2 = 0.1036	780.47	1.3513	0.295
303.15 K, x2 = 0.2043	781.81	1.3497	0.2939
303.15 K, x2 = 0.302	782.95	1.3482	0.2987
303.15 K, x2 = 0.4013	784	1.3464	0.3073
303.15 K, x2 = 0.5004	784.89	1.3439	0.3188
303.15 K, x2 = 0.6006	785.55	1.3407	0.34
303.15 K, x2 = 0.6969	785.85	1.3369	0.3663
303.15 K, x2 = 0.802	785.67	1.3328	0.4051
303.15 K, x2 = 0.8965	784.85	1.3291	0.4472
308.15 K, x2 = 0	773.08	1.3509	0.2831
308.15 K, x2 = 0.1036	774.93	1.3493	0.2807
308.15 K, x2 = 0.2043	776.27	1.3481	0.2803
308.15 K, x2 = 0.302	777.4	1.3465	0.2844
308.15 K, x2 = 0.4013	778.45	1.3444	0.2945
308.15 K, x2 = 0.5004	779.36	1.3419	0.3103
308.15 K, x2 = 0.6006	780.05	1.3385	0.3255
308.15 K, x2 = 0.6969	780.38	1.3349	0.3531
308.15 K, x2 = 0.802	780.24	1.3309	0.3857
308.15 K, x2 = 0.8965	779.53	1.3269	0.4278
313.15 K, x2 = 0	766.95	1.349	0.2689
313.15 K, x2 = 0.1036	768.83	1.3469	0.2647
313.15 K, x2 = 0.2043	770.26	1.3457	0.2657
313.15 K, x2 = 0.302	771.49	1.3435	0.2704
313.15 K, x2 = 0.4013	772.65	1.3415	0.2769
313.15 K, x2 = 0.5004	773.67	1.3392	0.2881
313.15 K, x2 = 0.6006	774.49	1.3362	0.3057
313.15 K, x2 = 0.6969	775.01	1.3329	0.3316
313.15 K, x2 = 0.802	775.12	1.3289	0.3619
313.15 K, x2 = 0.8965	774.65	1.3253	0.3989
318.15 K, x2 = 0	761.26	1.3449	0.2511
318.15 K, x2 = 0.1036	763.15	1.3432	0.2478
318.15 K, x2 = 0.2043	764.64	1.3414	0.2494
318.15 K, x2 = 0.302	765.92	1.3397	0.2526
318.15 K, x2 = 0.4013	767.11	1.3381	0.2601
318.15 K, x2 = 0.5004	768.17	1.3361	0.2692
318.15 K, x2 = 0.6006	769.04	1.3334	0.2903
318.15 K, x2 = 0.6969	769.62	1.3303	0.3096
318.15 K, x2 = 0.802	769.88	1.3262	0.3377
318.15 K, x2 = 0.8965	769.53	1.3221	0.375

ClC(Cl)Cl [trichloromethane] + CC(C)=O
Conditions	mass density, [1] [kg/m3]	refractive index, [2]	viscosity, [1] [mPa·s]
298.15 K, x2 = 0	1478.75	1.4422	0.5916
298.15 K, x2 = 0.0997	1419.64	1.4342	0.589
298.15 K, x2 = 0.1996	1357.58	1.4262	0.5814
298.15 K, x2 = 0.2993	1293.35	1.4192	0.5684
298.15 K, x2 = 0.3999	1226.35	1.4112	0.5412
298.15 K, x2 = 0.4979	1159.27	1.4029	0.5126
298.15 K, x2 = 0.599	1088.31	1.3941	0.4741
298.15 K, x2 = 0.6993	1016.22	1.3851	0.435
298.15 K, x2 = 0.8008	941.27	1.377	0.3975
298.15 K, x2 = 0.9006	864.78	1.3676	0.3443
303.15 K, x2 = 0	1469.16	1.4397	0.558
303.15 K, x2 = 0.0997	1409.35	1.4309	0.5571
303.15 K, x2 = 0.1996	1347.6	1.4252	0.5571
303.15 K, x2 = 0.2993	1284.12	1.418	0.5373
303.15 K, x2 = 0.3999	1217.87	1.4105	0.5156
303.15 K, x2 = 0.4979	1151.19	1.4019	0.4913
303.15 K, x2 = 0.599	1080.44	1.3924	0.4551
303.15 K, x2 = 0.6993	1008.68	1.3841	0.4188
303.15 K, x2 = 0.8008	934.43	1.3744	0.3802
303.15 K, x2 = 0.9006	858.83	1.3656	0.338
308.15 K, x2 = 0	1460.01	1.4356	0.5333
308.15 K, x2 = 0.0997	1402.33	1.4281	0.5329
308.15 K, x2 = 0.1996	1341.01	1.4215	0.5303
308.15 K, x2 = 0.2993	1276.96	1.4141	0.5185
308.15 K, x2 = 0.3999	1210.11	1.4055	0.4968
308.15 K, x2 = 0.4979	1143.34	1.3968	0.4693
308.15 K, x2 = 0.599	1073.05	1.3875	0.4396
308.15 K, x2 = 0.6993	1001.9	1.3791	0.4028
308.15 K, x2 = 0.8008	927.99	1.3702	0.3593
308.15 K, x2 = 0.9006	852.47	1.3601	0.3254
313.15 K, x2 = 0	1450.39	1.4338	0.5072
313.15 K, x2 = 0.0997	1393.77	1.4276	0.5067
313.15 K, x2 = 0.1996	1332.05	1.4202	0.4994
313.15 K, x2 = 0.2993	1268.04	1.4128	0.4876
313.15 K, x2 = 0.3999	1201.58	1.4048	0.468
313.15 K, x2 = 0.4979	1135.08	1.3965	0.4429
313.15 K, x2 = 0.599	1064.85	1.3873	0.4149
313.15 K, x2 = 0.6993	993.86	1.3787	0.383
313.15 K, x2 = 0.8008	920.68	1.3682	0.3453
313.15 K, x2 = 0.9006	846.27	1.3599	0.3056
318.15 K, x2 = 0	1440.03	1.4297	0.4849
318.15 K, x2 = 0.0997	1383.86	1.4244	0.4834
318.15 K, x2 = 0.1996	1322.43	1.4175	0.4798
318.15 K, x2 = 0.2993	1258.8	1.4094	0.4684
318.15 K, x2 = 0.3999	1192.83	1.4008	0.4483
318.15 K, x2 = 0.4979	1126.82	1.3929	0.4207
318.15 K, x2 = 0.599	1057.03	1.3839	0.389
318.15 K, x2 = 0.6993	986.42	1.3754	0.3583
318.15 K, x2 = 0.8008	913.61	1.365	0.3261
318.15 K, x2 = 0.9006	839.75	1.3548	0.2862
